# Experimental data reported in publication PMC5841303, “In silico screening for human norovirus antivirals reveals a novel non-nucleoside inhibitor of the viral polymerase” (Scientific Reports, 2018).
# Key:
# [1] = molecular target: human norovirus Sydney 2012 RdRp (Norovirus GII.4 (Norwalk virus, human norovirus), UniProt K4L8Z7); assay: Fluorescent de novo RdRp activity assay (PicoGreen, poly(C) template); assay type: biochemical; conditions: for inhibition of norovirus Sydney 2012 RdRp activity: 10 µM; for inhibition of norovirus Sydney 2012 RdRp activity / inhibition at 10 µM: secondary screen of newly synthesised compounds; for inhibition at 10 µM: read-out: inhibition of norovirus Sydney 2012 RdRp activity, 10 µM
# Description: The 62 compounds identified in silico were screened for inhibition of norovirus RdRp activity using an in vitro fluorescent, de novo RdRp assay. Compounds were tested at fixed concentrations of 10 µM and 100 µM, and compared to mock treated samples containing the vehicle only (0.5% DMSO [vol/vol]) (Fig. 4A,B). […] For certain compounds, significant insolubility was observed, coupled with either inherent fluorescence quenching (positive y-axis values on Fig. 4A,B) or enhancement of the fluorescence signal (negative y-axis values).
# The newly synthesised compounds, including the re-prepared hit 13 and some synthesis intermediates (Table 1), were initially evaluated on norovirus Sydney 2012 RdRp activity in vitro using a quantitative fluorescent assay. Compounds were tested at a fixed concentration of 10 μM and compared to the relative activity of mock treated samples.
# Recombinant calicivirus RdRps (GenBank accession numbers) norovirus GII.Pe/GII.4 Sydney 2012 (KT239579), MNV GV CW1 (DQ285629), RHDV Czech V351 (KF594473.1), and SaV GI.1 Mc114 (AY237422) were expressed and purified as described previously[60],[61]. RdRp resistance mutants were generated using the QuikChange site-directed mutagenesis kit (Agilent Technologies, Santa Clara, CA, USA) and confirmed by Sanger sequencing.
# (§1) Fluorescent RdRp activity assays were carried out as previously described[14],[62]. Briefly, RdRp activity was quantified by monitoring the formation of double-stranded RNA (dsRNA) from a single stranded homopolymeric template, poly(C) (Sigma Aldrich, St Louis, MO, USA), using the fluorescent dye PicoGreen (Life Technologies, Carlsbad, CA, USA). RdRp assays were performed in 384-well plates, and each reaction mixture contained 400 ng enzyme, 45 µM GTP, 10 ng/µL poly(C) RNA, 2.5 mM MnCl2, 5 mM dithiothreitol, (DTT), 0.01% bovine serum albumin (BSA), and 0.005% Tween 20 in 20 mM Tris-HCl, pH 7.5, with a final reaction volume of 25 µL. The previous published norovirus NNI NIC02 was used as a positive control. RdRps were incubated for 10 mins at 30 °C in the presence of the test compounds or the compound vehicle DMSO (0.5% vol/vol) before addition into the reaction mixture, which was then allowed to run 15 min at 30 °C then terminated with 10 mM EDTA, followed by PicoGreen staining and dsRNA quantitation. GraphPad Prism V6.05 (La Jolla, CA, USA) was used to plot the IC50 values. In cases where fluorescent enhancement was recorded for a compound instead of inhibition, a secondary gel-based polymerase activity assay was used as a counter-screen as described below, to exclude the possibility of RdRp activity enhancement (Supplementary Fig. S1). Primed elongation activity was examined in a gel-based assay as previously described[16],[63] using the RNA template (PE44-NoV, Fig. 4D). Gels were imaged using BioRad (Hercules, CA, U.SA) Geldoc Universal Hood II, running BioRad Image Lab software, V4.1, build 16. Antagonism was calculated using Compusyn software V1.0[59]. 54 and PPNDS (4:1 ratio) were tested alone and together against norovirus Sydney 2012 RdRp.
# norovirus RdRp = assay: Counter-screen gel-shift RdRp assay (primed elongation of PE44-NoV template); assay type: biochemical, human norovirus; conditions: fixed concentration of 100 µM
# Description: In this assay, a 32 nucleotide RNA template (PE44-NoV) is extended to 44 nucleotides in the presence of an active RdRp[16]. […] Inhibition of primed elongation of the PE44-NoV template was examined at a fixed concentration of 100 µM (Fig. 4D). In the absence of inhibition (0.5% DMSO vehicle only) the RNA template was extended to 44 nucleotides (Fig. 4D), evidenced by an upward gel shift and the appearance of the second, higher band.
# as §1
# MNV RdRp = molecular target: T1, MNV RdRp (Norovirus, UniProt Q80J95); assay: Fluorescent RdRp activity assay, MNV RdRp; assay type: biochemical, murine norovirus; conditions: fixed concentration of 100 µM
# T1 construct: made in house
# From the text: The antiviral activity of the four compounds (11, 13, 42a and 54) were examined for inhibition of RNA polymerases from other viruses spanning three genera of the Caliciviridae family, including Norovirus (human norovirus and MNV), Lagovirus (rabbit haemorrhagic disease virus [RHDV]) and Sapovirus (human sapovirus). […] The protein sequence of the examined calicivirus polymerases has an identity range between 30.2–61.4%, and therefore the broad-spectrum activity of these compounds could be attributed to a common, highly-conserved binding pocket across the RdRps, as has been previously reported with broad-spectrum activity of other site-B binding NNIs[16]. Moreover, the ability of each compound to inhibit the different RdRps in a similar range could be further confirmation of targeting a well-conserved binding site of the Caliciviridae family.
# Recombinant calicivirus RdRps (GenBank accession numbers) norovirus GII.Pe/GII.4 Sydney 2012 (KT239579), MNV GV CW1 (DQ285629), RHDV Czech V351 (KF594473.1), and SaV GI.1 Mc114 (AY237422) were expressed and purified as described previously[60],[61]. […]
# Fluorescent RdRp activity assays were carried out as previously described[14],[62]. Briefly, RdRp activity was quantified by monitoring the formation of double-stranded RNA (dsRNA) from a single stranded homopolymeric template, poly(C) (Sigma Aldrich, St Louis, MO, USA), using the fluorescent dye PicoGreen (Life Technologies, Carlsbad, CA, USA). […] RdRps were incubated for 10 mins at 30 °C in the presence of the test compounds or the compound vehicle DMSO (0.5% vol/vol) before addition into the reaction mixture, which was then allowed to run 15 min at 30 °C then terminated with 10 mM EDTA, followed by PicoGreen staining and dsRNA quantitation. […] In cases where fluorescent enhancement was recorded for a compound instead of inhibition, a secondary gel-based polymerase activity assay was used as a counter-screen as described below, to exclude the possibility of RdRp activity enhancement (Supplementary Fig. S1). […] Antagonism was calculated using Compusyn software V1.0[59]. […]
# [2] = Observed compound solubility; assay type: physicochemical; conditions: assay conditions / 100% DMSO
# Description: Therefore, they were counter-screened at 100 µM in a secondary gel-based assay (Supplementary Fig. S1).
# To confirm RdRp inhibition and to exclude any potential false positives from the first fluorescence RdRp assay, the eight selected compounds (Fig. 4C) were then assessed using a gel-shift enzyme activity assay.
# Dose-dependent inhibitory response curves were used to establish IC50 values for the five test compounds (Table 2). […] Therefore, 42b was too insoluble to attain a reliable confidence interval in the dose-response experiments and was not examined further. However, from the other four compounds, hit 11 and its phenyl derivative 54 gave the lowest IC50 values, 3–5 fold improved compared with 13 and its derivative 42a, confirming increased RdRp inhibitory activity associated with this scaffold.
structure (smiles),measurement,setting,value
O=C(CN1C(=O)S/C(=C\c2ccc(-c3ccccc3)o2)C1=O)N1CCOCC1 [Compound 23a],inhibition of norovirus Sydney 2012 RdRp activity,[1],complete loss of activity
COC(=O)c1ccc(-c2ccc(/C=C3\SC(=O)N(CC(=O)N4CCOCC4)C3=O)o2)cc1 [Compound 23b],inhibition of norovirus Sydney 2012 RdRp activity,[1],complete loss of activity
Cc1ccccc1-c1ccc(/C=C2\SC(=O)N(CC(=O)N3CCOCC3)C2=O)o1 [Compound 23c],inhibition of norovirus Sydney 2012 RdRp activity,[1],complete loss of activity
O=C(CN1C(=O)S/C(=C\c2ccc(-c3ccccc3)o2)C1=O)N1CCCCC1 [Compound 24a],inhibition of norovirus Sydney 2012 RdRp activity,[1],loss of inhibitory activity
COC(=O)c1ccc(-c2ccc(/C=C3\SC(=O)N(CC(=O)N4CCCCC4)C3=O)o2)cc1 [Compound 24b],inhibition of primed elongation activity (gel-shift),norovirus RdRp,no appreciable effect
same,inhibition at 10 µM,[1],60%
Cc1ccccc1-c1ccc(/C=C2\SC(=O)N(CC(=O)N3CCCCC3)C2=O)o1 [Compound 24c],inhibition of norovirus Sydney 2012 RdRp activity,[1],loss of inhibitory activity
COC(=O)c1ccc(-c2ccc(/C=C3\SC(=O)N(CC(=O)N4CCCCC4)C3=O)o2)c(C)c1 [Compound 24d],inhibition at 10 µM,[1],25%
O=C1NC(=O)/C(=C/c2ccc(-c3ccc(C(=O)O)cc3)o2)S1 [Compound 27],inhibition of norovirus Sydney 2012 RdRp activity,[1],lacked RdRp inhibitory activity
O=C(O)c1ccc(-c2ccc(/C=C3\SC(=O)N(CC(=O)N4CCOCC4)C3=O)o2)cc1 [Compound 28],inhibition at 10 µM,[1],~50%
COC(=O)c1ccc(-c2ccc(/C=C3\SC(=O)N(CC(=O)N4CCOCC4)C3=O)o2)c(C)c1 [Compound 39d],inhibition of norovirus Sydney 2012 RdRp activity,[1],complete loss of activity
Cc1cc(C(=O)O)ccc1-c1ccc(/C=C2\SC(=O)N(CC(=O)N3CCCCC3)C2=O)o1 [Compound 40e],inhibition of norovirus Sydney 2012 RdRp activity,[1],abolished the activity
O=C(CN1C(=O)S/C(=C\c2ccc(-c3ccccc3)o2)C1=O)Nc1ccccc1 [Compound 42a],inhibition of primed elongation activity (gel-shift),norovirus RdRp,near complete abolishment of norovirus RdRp activity
same,IC50,[1],27.4 µM
same,inhibition at 100 µM,MNV RdRp,44.4%
same,inhibition of MNV RdRp activity,MNV RdRp; 100 µM,< 50%
COC(=O)c1ccc(-c2ccc(/C=C3\SC(=O)N(CC(=O)Nc4ccccc4)C3=O)o2)cc1 [Compound 42b],inhibition of primed elongation activity (gel-shift),norovirus RdRp,near complete abolishment of norovirus RdRp activity
same,inhibition at 10 µM,[1],> 50%
same,solubility (observation),[2],significant solubility issues
Cc1ccc(N2NC(=O)/C(=C\c3ccc(-c4ccc(S(=O)(=O)Nc5ccccc5)cc4)o3)C2=O)cc1 [Compound 55],inhibition of primed elongation activity (gel-shift),norovirus RdRp,minimal inhibition
